Experimental data from ChEMBL document CHEMBL1201862, “PubChem BioAssay data set” (2004).
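Cells were grown in 96-well plates and exposed to each compound for 48 hours at five concentrations; endpoints were interpolated linearly between bracketing concentrations, or set to the highest concentration if not reached. Abbreviation: GI50, concentration required for 50% inhibition of growth.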 Activity calls are given as the source filed them. No stated cut-off is given here; in the data, active = GI50 up to about 1.1 µM and inactive = higher.

Assays:
Assay in all cases: inhibition of tumour cell growth, NCI panel, 48 h
NCI-H23 = system: NCI-H23
RPMI-8226 = system: RPMI-8226
SK-OV-3 = system: SK-OV-3
BT-549 = system: BT-549
OVCAR-3 = system: OVCAR-3
M14 = system: M14
MDA-MB-435 = system: MDA-MB-435
U-251 = system: U-251
HOP-18 = system: HOP-18
UACC-257 = system: UACC-257
HT-29 = system: HT-29
DMS-114 = system: DMS-114
DU-145 = system: DU-145
HCT-116 = system: HCT-116
HOP-62 = system: HOP-62
HL-60 = system: HL-60
EKVX = system: EKVX
MCF7 = system: MCF7
UO-31 = system: UO-31
OVCAR-4 = system: OVCAR-4

SMILES | GI50 (NCI-H23) | GI50 (RPMI-8226) | GI50 (SK-OV-3) | GI50 (BT-549) | GI50 (OVCAR-3) | GI50 (M14) | GI50 (MDA-MB-435) | GI50 (U-251) | GI50 (HOP-18) | GI50 (UACC-257) | GI50 (HT-29) | GI50 (DMS-114) | GI50 (DU-145) | GI50 (HCT-116) | GI50 (HOP-62) | GI50 (HL-60) | GI50 (EKVX) | GI50 (MCF7) | GI50 (UO-31) | GI50 (OVCAR-4)
C=C1[C@@H](C)[C@H]2[C@H](Cc3ccccc3)NC(=O)[C@]23OC(=O)/C=C/[C@H](O)CCC[C@@H](C)C/C=C/[C@H]3[C@@H]1O | 7 µM (inactive) | 1.82 µM (inactive) | 32.6 µM (inactive) | 15.4 µM (inactive) | 7.48 µM (inactive) | > 100 µM (inactive) | 21.8 µM (inactive) | 2.08 µM (inactive) | 0.156 µM (active) | 9.62 µM (inactive) | 5.82 µM (inactive) | 14.5 µM (inactive) | 30.1 µM (inactive) | 8.41 µM (inactive) | 0.605 µM (active) | 16.1 µM (inactive) | 10.7 µM (inactive) | 16.6 µM (inactive) | 0.258 µM (active) | 8.67 µM (inactive)
COc1ccc(CC2C(=O)NC(C)C(=O)N(C)C3C(=O)N(C)C(Cc4ccc(O)c(c4)Oc4ccc(cc4)C3O)C(=O)NC(C)C(=O)NC(C)C(=O)N2C)cc1 (stereo unspecified) | 0.016 µM (active) | 0.014 µM (active) | 0.0236 µM (active) | < 0.01 µM (active) | 0.0113 µM (active) | 0.0275 µM (active) | < 0.01 µM (active) | 0.00124 µM (active) | 0.00195 µM (active) | 0.0071 µM (active) | 0.0178 µM (active) | 0.00145 µM (active) | < 0.01 µM (active) | 0.00181 µM (active) | 0.0284 µM (active) | 0.00308 µM (active) | 0.0261 µM (active) | 0.0125 µM (active) | 0.824 µM (active) | 0.00664 µM (active)
COc1cc(Nc2nc3c(N)cc(C(F)(F)F)cc3nc2-c2ccccc2)cc(OC)c1OC | 70.3 µM (inactive) | > 100 µM (inactive) | 42.5 µM (inactive) | 35.5 µM (inactive) | 57.1 µM (inactive) | 66.2 µM (inactive) | > 69.2 µM (inactive) | 26.1 µM (inactive) | 29.8 µM (inactive) | 63 µM (inactive) | > 92.5 µM (inactive) | 81.8 µM (inactive) | > 100 µM (inactive) | > 74.3 µM (inactive) | 26.3 µM (inactive) | > 100 µM (inactive) | > 100 µM (inactive) | 67.3 µM (inactive) | > 100 µM (inactive) | 15 µM (inactive)
CN(C)CCCNc1ccc2nnn3c4ccc([N+](=O)[O-])cc4c(=O)c1c23 | 2.03 µM (inactive) | 0.946 µM (active) | 1.79 µM (inactive) | 5.26 µM (inactive) | 2.55 µM (inactive) | 2.14 µM (inactive) | 1.49 µM (inactive) | 0.738 µM (active) | 0.729 µM (active) | 3.4 µM (inactive) | 0.55 µM (active) | 1.89 µM (inactive) | 1.71 µM (inactive) | 0.404 µM (active) | 0.817 µM (active) | 1.83 µM (inactive) | 2.56 µM (inactive) | 1.74 µM (inactive) | 1.28 µM (inactive) | 1.02 µM (active)
CNC(=O)OCc1nc([S+](C)[O-])n(C)c1COC(=O)NC (stereo unspecified) | > 100 µM (inactive) | > 100 µM (inactive) | > 44.1 µM (inactive) |  | > 100 µM (inactive) | > 29.1 µM (inactive) |  | > 100 µM (inactive) | > 88.9 µM (inactive) | > 100 µM (inactive) | > 100 µM (inactive) | > 34.6 µM (inactive) |  | > 100 µM (inactive) | > 100 µM (inactive) | > 100 µM (inactive) | > 100 µM (inactive) | > 100 µM (inactive) | > 100 µM (inactive) | > 51.9 µM (inactive)
Cc1cn([C@H]2C[C@H](N=[N+]=[N-])[C@@H](CO)O2)c(=O)[nH]c1=O [ZIDOVUDINE] | > 100 µM (inactive) | 48.3 µM (inactive) | > 100 µM (inactive) | 488 µM (inactive) | > 100 µM (inactive) | > 100 µM (inactive) | 565 µM (inactive) |  | > 100 µM (inactive) | > 100 µM (inactive) | 238 µM (inactive) | > 95.5 µM (inactive) | 420 µM (inactive) | 88.5 µM (inactive) | > 100 µM (inactive) | 646 µM (inactive) | > 100 µM (inactive) | 66.4 µM (inactive) | > 100 µM (inactive) | > 85.1 µM (inactive)
